Our source for the IC50 values is patent US9187472B2 (AbbVie Inc., priority 2012, dated 2015).

Molecules are shown by their SMILES.

One experiment concerns the target NAMPT (Homo sapiens, UniProt P43490). The experiment is described as follows: TR-FRET Binding Assay of NAMPT with PRPP. Particulars: with 200 μM PRPP and 2.5 mM ATP; 2 nM NAMPT, 2 nM probe, 16 hours equilibration. In outline: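 Compounds were mixed with 2 nM His-tagged NAMPT, 2 nM probe, 1 nM terbium anti-His antibody, 200 μM PRPP and 2.5 mM ATP in assay buffer with 2% DMSO, then left 16 hours to permit possible enzymatic processing of compounds before time-resolved FRET was measured.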

The target of experiment [1] is NAMPT (human, recombinant, C-terminally His-tagged) (Homo sapiens, UniProt P43490). The experiment can be described thus: Time-Resolved Fluorescence Resonance Energy Transfer (TR-FRET) Binding Assay of NAMPT. The settings on record: without substrates; 6.8 nM NAMPT, 200 nM probe, 3 hours equilibration. The method, boiled down: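 Compounds, diluted in half-log steps, are mixed with enzyme (6.8 nM), fluorescent probe (200 nM) and Tb-anti-His antibody (1 nM) in pH 7.5 HEPES buffer containing 10 mM MgCl2 and 1 mM DTT. Plates equilibrate 3 h at room temperature; normalized FRET ratios are fitted by four-parameter logistic regression for IC50.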
NAMPT (human, recombinant, C-terminally His-tagged), sequence (P43490 whole entry): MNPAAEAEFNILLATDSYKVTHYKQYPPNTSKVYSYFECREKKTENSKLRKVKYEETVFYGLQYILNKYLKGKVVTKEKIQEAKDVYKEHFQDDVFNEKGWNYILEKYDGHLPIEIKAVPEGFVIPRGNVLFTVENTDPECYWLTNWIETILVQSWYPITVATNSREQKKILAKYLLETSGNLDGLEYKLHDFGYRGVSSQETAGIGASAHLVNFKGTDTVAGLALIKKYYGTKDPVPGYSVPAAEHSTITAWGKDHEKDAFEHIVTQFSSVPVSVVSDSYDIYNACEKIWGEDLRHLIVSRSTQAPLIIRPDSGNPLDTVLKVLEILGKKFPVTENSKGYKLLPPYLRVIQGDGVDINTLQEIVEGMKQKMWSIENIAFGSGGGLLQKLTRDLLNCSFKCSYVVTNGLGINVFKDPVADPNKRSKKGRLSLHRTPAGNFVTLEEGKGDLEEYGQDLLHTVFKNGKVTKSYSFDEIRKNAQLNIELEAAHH
On the technique in general: In TR-FRET formats the signal depends on donor and acceptor labels being close together.

A further experiment concerns PC3 cells. The experiment can be described thus: NAMPT Cell Proliferation Assay. It is filed as cell-based. The settings on record: Homo sapiens, PC-3, 120 h, 5 days incubation, cell viability by Cell Titer Glo. In outline: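 Seed PC3 at 500 cells/well (RPMI, 10% HI-FBS), attach overnight; add compound, 10-fold series 10 μM → 1×10^−5 μM; incubate 5 d, 37° C/5% CO2; luminescent viability readout; fit % inhibition sigmoidally for IC50.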
(In general: Cellular ATP, detected with luciferase, serves as a proxy for viable cell number.)

Usually IC50 stands for the concentration needed to halve the response being measured.

NAMPT, sequence (P43490 whole entry): as above

Turning to `O=C(NCc1ccn2ccnc2c1)c1ccc(C2CN(C(=O)CC3CCCC3)C2)cc1` [Example 629, 4-[1-(cyclopentylacetyl)azetidin-3-yl]-N-(imidazo[1,2-a]pyridin-7-ylmethyl)benzamide], the figures for the IC50 (on NAMPT; in experiment [1]; in the experiment with PC3 cells) were 0.643 nM, 230 nM and 65.2 nM, respectively.

`O=C(NCc1ccn2ccnc2c1)c1ccc(C2CCN(C(=O)C3CC3)C2)s1` (stereo not drawn) [Example 717, 5-[1-(cyclopropylcarbonyl)pyrrolidin-3-yl]-N-(imidazo[1,2-a]pyridin-7-ylmethyl)thiophene-2-carboxamide]: the IC50 at NAMPT came out at 0.428 nM; in experiment [1] it was 186 nM; with PC3 cells, 72.4 nM.

On to `O=C(NCc1ccn2ccnc2c1)c1ccc(C2CCN(C(=O)C3CCOC3)CC2)cc1` (stereo not drawn) [Example 231, N-(imidazo[1,2-a]pyridin-7-ylmethyl)-4-[1-(tetrahydrofuran-3-ylcarbonyl)piperidin-4-yl]benzamide], for which the IC50 on NAMPT was 0.546 nM; in experiment [1], 817 nM; with PC3 cells it was 35.1 nM.

As to `O=C(NCc1ccn2ccnc2c1)c1ccc(C2CCN(C(=O)c3ccco3)CC2)cc1` [Example 484, 4-[1-(furan-2-ylcarbonyl)piperidin-4-yl]-N-(imidazo[1,2-a]pyridin-7-ylmethyl)benzamide], the IC50 at NAMPT was determined as 0.19 nM; in experiment [1], 79.5 nM; in the experiment on PC3 cells, 9.59 nM.

Turning to `CC(C)(C)OC(=O)N1CC[C@@H](Oc2ccc(C(=O)NCc3ccn4ccnc4c3)cc2)C1` [Example 436, tert-butyl (3R)-3-{4-[(imidazo[1,2-a]pyridin-7-ylmethyl)carbamoyl]phenoxy}pyrrolidine-1-carboxylate], the IC50 at NAMPT stood at 0.416 nM; in experiment [1], 1590 nM; in the experiment on PC3 cells, 762 nM.

On to `COCC(C)C(=O)N1CC[C@H](Oc2ccc(C(=O)NCc3ccn4ccnc4c3)cc2)C1` (stereo partly drawn) [Example 349, N-(imidazo[1,2-a]pyridin-7-ylmethyl)-4-{[(3S)-1-(3-methoxy-2-methylpropanoyl)pyrrolidin-3-yl]oxy}benzamide], for which the values for the IC50 (at NAMPT; in experiment [1]; in the experiment on PC3 cells) were 0.736 nM, 4110 nM and 5510 nM, respectively.

For the compound `CC(C)C(=O)N1CCC(c2ccc(NC(=O)NCc3ccn4ccnc4c3)cc2)C1` (stereo not drawn) [Example 380, 1-(imidazo[1,2-a]pyridin-7-ylmethyl)-3-{4-[1-(2-methylpropanoyl)pyrrolidin-3-yl]phenyl}urea], the IC50 came out at 0.251 nM on NAMPT, 179 nM in experiment [1] and 40 nM with PC3 cells.

Turning to `COc1cccc(C(=O)N2CCC(c3ccc(C(=O)NCc4ccn5ccnc5c4)cc3)CC2)c1` [Example 526, N-(imidazo[1,2-a]pyridin-7-ylmethyl)-4-[1-(3-methoxybenzoyl)piperidin-4-yl]benzamide], the IC50 on NAMPT worked out at 0.275 nM; in experiment [1], 126 nM; with PC3 cells, 60.3 nM.

On to `O=C(Nc1ccc(C2=CCN(C(=O)C3CCCO3)CC2)cc1)Nc1ccc2nccn2c1` (stereo not drawn) [Example 33, 1-imidazo[1,2-a]pyridin-6-yl-3-{4-[1-(tetrahydrofuran-2-ylcarbonyl)-1,2,3,6-tetrahydropyridin-4-yl]phenyl}urea], for which the IC50 at NAMPT is 0.553 nM; in experiment [1] it was 369 nM; in the experiment with PC3 cells it was 67.3 nM.

`O=C(NCc1ccn2ccnc2c1)Nc1ccc(OC2CN(C(=O)CC3CC3)C2)cc1` [Example 427, 1-(4-{[1-(cyclopropylacetyl)azetidin-3-yl]oxy}phenyl)-3-(imidazo[1,2-a]pyridin-7-ylmethyl)urea]: the IC50 amounted to 0.27 nM on NAMPT, 150 nM in experiment [1] and 62.2 nM in the experiment with PC3 cells.

Take `CCC(C)CC(=O)N1CCC(c2ccc(C(=O)NCc3ccn4ccnc4c3)cc2)C1` (stereo not drawn) [Example 582, N-(imidazo[1,2-a]pyridin-7-ylmethyl)-4-[1-(3-methylpentanoyl)pyrrolidin-3-yl]benzamide]: the results for the IC50 (at NAMPT; in experiment [1]; in the experiment with PC3 cells) were 0.911 nM, 711 nM and 33.2 nM, respectively.

Take `O=C(Nc1ccc(C2=CCN(C(=O)C3COCCO3)CC2)cc1)Nc1ccc2nccn2c1` (stereo not drawn) [Example 35, 1-{4-[1-(1,4-dioxan-2-ylcarbonyl)-1,2,3,6-tetrahydropyridin-4-yl]phenyl}-3-imidazo[1,2-a]pyridin-6-ylurea]: the IC50 on NAMPT stood at 0.801 nM; in experiment [1], 387 nM; in the experiment on PC3 cells it was 58.6 nM.

Take `O=C(NCc1ccc2nccn2c1)c1cnc(N(CC2CCCO2)C(=O)CCc2ccno2)s1` (stereo not drawn) [Example 133, N-(imidazo[1,2-a]pyridin-6-ylmethyl)-2-{[3-(1,2-oxazol-5-yl)propanoyl](tetrahydrofuran-2-ylmethyl)amino}-1,3-thiazole-5-carboxamide]: the IC50 at NAMPT was determined as 0.709 nM; in experiment [1], 67 nM; in the experiment on PC3 cells it was 2.16 nM.

As to `O=C(NCc1ccn2ccnc2c1)c1ccc(C2CCN(C(=O)[C@@H]3CCCO3)CC2)cc1` [Example 311, N-(imidazo[1,2-a]pyridin-7-ylmethyl)-4-{1-[(2S)-tetrahydrofuran-2-ylcarbonyl]piperidin-4-yl}benzamide], the results for the IC50 (at NAMPT; in experiment [1]; in the experiment with PC3 cells) were 0.274 nM, 289 nM and 19.1 nM, respectively.

For `COCCC(=O)N(C[C@@H]1CCCO1)c1ncc(C(=O)NCc2ccc3nccn3c2)s1` [Example 148, N-(imidazo[1,2-a]pyridin-6-ylmethyl)-2-{(3-methoxypropanoyl)[(2S)-tetrahydrofuran-2-ylmethyl]amino}-1,3-thiazole-5-carboxamide], the IC50 at NAMPT was found to be 1.35 nM; in experiment [1], 6230 nM; with PC3 cells, 41.5 nM.

For `CC(C)C(C)C(=O)N1CCC(c2ccc(C(=O)NCc3ccn4ccnc4c3)cc2)CC1` (stereo not drawn) [Example 536, 4-[1-(2,3-dimethylbutanoyl)piperidin-4-yl]-N-(imidazo[1,2-a]pyridin-7-ylmethyl)benzamide], the IC50 on NAMPT was 0.202 nM; in experiment [1], 77.6 nM; with PC3 cells it was 3.04 nM.

Turning to `O=C(NCc1ccn2ccnc2c1)c1cnc(N2C(=O)OC[C@H]2COCc2ccccc2)s1` [Example 187, 2-{(4R)-4-[(benzyloxy)methyl]-2-oxo-1,3-oxazolidin-3-yl}-N-(imidazo[1,2-a]pyridin-7-ylmethyl)-1,3-thiazole-5-carboxamide], the values for the IC50 (on NAMPT; in experiment [1]; with PC3 cells) were 0.172 nM, 549 nM and 34.1 nM, respectively.

As to `CC(C)(O)C(=O)N1CCC(c2ccc(NC(=O)NCc3ccn4ccnc4c3)cc2)C1` (stereo not drawn) [Example 385, 1-{4-[1-(2-hydroxy-2-methylpropanoyl)pyrrolidin-3-yl]phenyl}-3-(imidazo[1,2-a]pyridin-7-ylmethyl)urea], the IC50 at NAMPT amounted to 0.539 nM; in experiment [1] it was 491 nM; in the experiment with PC3 cells it was 110 nM.

Take `O=C(NCc1ccn2ccnc2c1)c1ccc(OC2CN(C(=O)CC3CC3)C2)cc1` [Example 560, 4-{[1-(cyclopropylacetyl)azetidin-3-yl]oxy}-N-(imidazo[1,2-a]pyridin-7-ylmethyl)benzamide]: the IC50 amounted to 0.312 nM at NAMPT, 969 nM in experiment [1] and 844 nM with PC3 cells.

For `O=C(NCc1ccc2nccn2c1)c1cnc(N(CC2CCOCC2)C(=O)C2CCOC2)s1` (stereo not drawn) [Example 143, N-(imidazo[1,2-a]pyridin-6-ylmethyl)-2-[(tetrahydrofuran-3-ylcarbonyl)(tetrahydro-2H-pyran-4-ylmethyl)amino]-1,3-thiazole-5-carboxamide], the IC50 on NAMPT was determined as 2.03 nM; in experiment [1], 8710 nM; with PC3 cells it was 80.8 nM.

Turning to `O=C(Nc1ccc(C2=CCN(C(=O)C3CCOCC3)CC2)cc1)Nc1ccc2nccn2c1` [Example 34, 1-imidazo[1,2-a]pyridin-6-yl-3-{4-[1-(tetrahydro-2H-pyran-4-ylcarbonyl)-1,2,3,6-tetrahydropyridin-4-yl]phenyl}urea], the IC50 came to 0.377 nM at NAMPT, 208 nM in experiment [1] and 38.3 nM in the experiment with PC3 cells.

For the compound `O=C(NCc1ccc2nccn2c1)c1ccc(OC2CCN(C(=O)CC3CCCO3)CC2)cc1` (stereo not drawn) [Example 173, N-(imidazo[1,2-a]pyridin-6-ylmethyl)-4-{[1-(tetrahydrofuran-2-ylacetyl)piperidin-4-yl]oxy}benzamide], the values for the IC50 (on NAMPT; in experiment [1]; in the experiment with PC3 cells) were 1.24 nM, 1510 nM and 50.1 nM, respectively.

For the compound `COc1ccc(C(=O)N2CCC(c3ccc(C(=O)NCc4ccn5ccnc5c4)cc3)C2)cc1` (stereo not drawn) [Example 605, N-(imidazo[1,2-a]pyridin-7-ylmethyl)-4-[1-(4-methoxybenzoyl)pyrrolidin-3-yl]benzamide], the IC50 was found to be 0.886 nM at NAMPT, 559 nM in experiment [1] and 66.1 nM with PC3 cells.

`O=C(NCc1ccn2ccnc2c1)c1ccc(C2CCN(C(=O)c3ccccc3)CC2)cc1` [Example 437, 4-(1-benzoylpiperidin-4-yl)-N-(imidazo[1,2-a]pyridin-7-ylmethyl)benzamide]: the values for the IC50 (at NAMPT; in experiment [1]; in the experiment on PC3 cells) were 0.169 nM, 29.1 nM and 7.02 nM, respectively.

Turning to `CC(C)OCC(=O)N1CCC(c2ccc(C(=O)NCc3ccn4ccnc4c3)cc2)C1` (stereo not drawn) [Example 371, N-(imidazo[1,2-a]pyridin-7-ylmethyl)-4-{1-[(propan-2-yloxy)acetyl]pyrrolidin-3-yl}benzamide], the values for the IC50 (at NAMPT; in experiment [1]; with PC3 cells) were 0.298 nM, 1440 nM and 820 nM, respectively.
